Data reported in patent publication US20230391727A1, “ANALOGUES OF PENTAMIDINE AND METHODS FOR TREATING INFECTIONS” (Auransa Inc., priority 2020, published 2023).

Assays:
Assay in all cases: Checkerboard/MIC assay with rifampicin
Assay type in all cases: cell-based
[1] = test system: Klebsiella pneumoniae (NCTC 13438)
Excerpt: (§1) The 17 test strains/isolates were: (1) Serratia marcescens (ATCC 13880); (2) Salmonella typhimurium (ATCC 13311); (3) Salmonella choleraesuis (ATCC 10708); (4) Acinetobacter baumannii (ATCC BAA-1605); (5) A. baumannii (ATCC 17978); (6) A. baumannii (FDA-CDC AR-BANK#0088); (7) Citrobacter freundii (ATCC 8090); (8) Pseudomonas aeruginosa (BCCM 27647); (9) P. aeruginosa (BCCM 27648); (10) Escherichia coli (ATCC 25922); (11) E. coli (ATCC 10536); (12) Stenotrophomonas maltophilia (ATCC 13637); (13) Enterobacter cloacae (ATCC BAA-1143); (14) E. cloacae (ATCC 13047); (15) E. aerogenes (ATCC 13048); (16) Klebsiella pneumoniae (NCTC 13438); and (17) Klebsiella pneumoniae (FDA-CDC AR-BANK#0160). These bacterial strains were obtained from the American Type Culture Collection (ATCC, Rockville, MD, USA); Belgian Coordinated Collections of Microorganisms; The Culture Collections of Public Health England, UK; and FDA-CDC anticimrobial Resistance Isolate Bank, USA, and cryopreserved as single-use frozen working stock cultures which were stored at −80° C.
(§2) The 17 test strains were grown on nutrient agar or tryptic soy agar (TSA) medium as below. Colonies were suspended in phosphate buffered saline (PBS) pH 7.4. The absorbance of the bacterial suspension was measured with a spectrophotometer at OD620nm, and then the suspension was adjusted to 1-2×10^8 CFU/mL in PBS. The adjusted suspension was further diluted 1:500 in cation-adjusted Mueller-Hinton Broth. Each well contained approximately 5×10^5 CFU/mL. […] The testing inoculum was prepared within minutes before adding to wells of the test plate.
(§3) Compound 3 was tested in 8 points by two-fold serial titrations from 100 to 0.78 μg/mL. […] Assay plates were incubated and MIC endpoints were read as complete inhibition of visual growth. The checkerboard combination analysis was performed following the MIC testing protocol to identify potential synergistic, indifferent or antagonistic interactions. The analysis also included each test substance alone at the same concentration ranges.
(§4) FIC (Fraction Inhibitory Concentration) and FIC Index (FICI) values for each test condition and the average of FICI values of all pairwise combinations were calculated to determine if synergy or antagonism existed between the two substances. The FIC index was determined by calculating the sum of the ratios of MICs (minimum inhibitory concentrations) for both substances. […] Synergy is defined as the FICI (Σ)≤0.5; additivity or indifference are defined as the FICI (Σ)>0.5 to ≤4; antagonism is defined as the FICI (Σ)>4. The two fold of highest test article concentration was used for FIC value calculations in the circumstances where MIC values were greater than the highest test article concentration.

[2] = test system: Pseudomonas aeruginosa (BCCM 27647); conditions: Pseudomonas aeruginosa BCCM27647
Excerpt: as §1, §2, §3, §4

[3] = test system: Salmonella choleraesuis (ATCC 10708); conditions: Salmonella choleraesuis ATCC 10708
Excerpt: as §1, §2, §3, §4

[4] = test system: Acinetobacter baumannii (ATCC BAA-1605); conditions: Acinetobacter baumannii BAA-1605
Excerpt: as §1, §2, §3, §4

E. cloacae (ATCC 13047) = conditions: Enterobacter cloacae ATCC-13047
Excerpt: as §1, §2, §3, §4

[5] = test system: Citrobacter freundii (ATCC 8090)
Excerpt: as §1, §2, §3, §4

[6] = test system: Enterobacter cloacae (ATCC BAA-1143); conditions: Enterobacter cloacae BAA-1143
Excerpt: as §1, §2, §3, §4

[7] = test system: P. aeruginosa (BCCM 27648); conditions: Pseudomonas aeruginosa BCCM27648
Excerpt: as §1, §2, §3, §4

[8] = test system: Stenotrophomonas maltophilia (ATCC 13637)
Excerpt: as §1, §2, §3, §4

E. coli (ATCC 10536) = conditions: Escherichia coli ATCC 10536
Excerpt: as §1, §2, §3, §4

[9] = test system: E. aerogenes (ATCC 13048); conditions: Enterobacter aerogenes ATCC-13048
Excerpt: as §1, §2, §3, §4

[10] = test system: Serratia marcescens (ATCC 13880)
Excerpt: as §1, §2, §3, §4

[11] = test system: A. baumannii (FDA-CDC AR-BANK#0088); conditions: Acinetobacter baumannii AR-BANK 0088
Excerpt: as §1, §2, §3, §4

[12] = test system: A. baumannii (ATCC 17978); conditions: Acinetobacter baumannii ATCC 17978
Excerpt: as §1, §2, §3, §4

[13] = test system: Klebsiella pneumoniae (FDA-CDC AR-BANK#0160); conditions: Klebsiella pneumoniae AR-BANK#0160
Excerpt: as §1, §2, §3, §4

[14] = compound 3 in combination with rifampicin

**Q.** How did the MIC ([1]; NCTC13438, substance alone) turn out when `N=C(N)c1ccc(CC[C@H]2CCC[C@@H](CCc3ccc(C(=N)N)cc3)C2)cc1` [Compound 3, 4,4′-(2,2′-((1R,3S)-cyclohexane-1,3-diyl)bis(ethane-2,1-diyl))dibenzimidamide] was run?
**A.** 50 µg/mL

**Q.** What about the “Combination Result” value [1, 14] of the same compound?
**A.** synergy (Synergy is defined as the FICI (Σ)≤0.5)

**Q.** What about the “FICI (Average)” value [1, 14] of the same compound?
**A.** 0.22

**Q.** And the “Combination Result” value [2, 14]?
**A.** additivity/

**Q.** And the “FICI (Average)” value [2, 14]?
**A.** 1.03

**Q.** And the MIC ([2]; substance alone)?
**A.** 25 µg/mL

**Q.** And the MIC ([3]; Salmonella enterica, substance alone, read-out: MIC)?
**A.** 50 µg/mL

**Q.** And the “Combination Result” value [3, 14]?
**A.** synergy (Synergy is defined as the FICI (Σ)≤0.5)

**Q.** What about the “FICI (Average)” value [3, 14] of the same compound?
**A.** 0.32

**Q.** What about the “Combination Result” value [4, 14] of the same compound?
**A.** synergy (Synergy is defined as the FICI (Σ)≤0.5)

**Q.** And the “FICI (Average)” value [4, 14]?
**A.** 0.31

**Q.** And the MIC ([4]; substance alone)?
**A.** 25 µg/mL

**Q.** And the MIC (E. cloacae (ATCC 13047); ATCC13047, substance alone)?
**A.** 100 µg/mL

**Q.** What about the “Combination Result” value (E. cloacae (ATCC 13047); [14]) of the same compound?
**A.** synergy (Synergy is defined as the FICI (Σ)≤0.5)

**Q.** And the “FICI (Average)” value (E. cloacae (ATCC 13047); [14])?
**A.** 0.19

**Q.** What about the MIC ([5]; ATCC8090, substance alone) of the same compound?
**A.** 100 µg/mL

**Q.** What about the “Combination Result” value [5, 14] of the same compound?
**A.** synergy (Synergy is defined as the FICI (Σ)≤0.5)

**Q.** And the “FICI (Average)” value [5, 14]?
**A.** 0.19

**Q.** And the “Combination Result” value [6, 14]?
**A.** synergy (Synergy is defined as the FICI (Σ)≤0.5)

**Q.** What about the “FICI (Average)” value [6, 14] of the same compound?
**A.** 0.19

**Q.** What about the MIC ([6]; substance alone) of the same compound?
**A.** 100 µg/mL

**Q.** What about the “Combination Result” value [7, 14] of the same compound?
**A.** additivity/

**Q.** And the “FICI (Average)” value [7, 14]?
**A.** 1.03

**Q.** And the MIC ([7]; substance alone)?
**A.** 25 µg/mL

**Q.** And the MIC ([8]; ATCC13637, substance alone)?
**A.** 12.5 µg/mL

**Q.** What about the “Combination Result” value [8, 14] of the same compound?
**A.** synergy (Synergy is defined as the FICI (Σ)≤0.5)

**Q.** What about the “FICI (Average)” value [8, 14] of the same compound?
**A.** 0.39

**Q.** What about the MIC (E. coli (ATCC 10536); ATCC10536, substance alone) of the same compound?
**A.** 6.25 µg/mL

**Q.** And the “Combination Result” value (E. coli (ATCC 10536); [14])?
**A.** synergy (Synergy is defined as the FICI (Σ)≤0.5)

**Q.** What about the “FICI (Average)” value (E. coli (ATCC 10536); [14]) of the same compound?
**A.** 0.48

**Q.** What about the MIC ([9]; Klebsiella aerogenes, ATCC13048, substance alone) of the same compound?
**A.** 100 µg/mL

**Q.** What about the “Combination Result” value [9, 14] of the same compound?
**A.** synergy (Synergy is defined as the FICI (Σ)≤0.5)

**Q.** What about the “FICI (Average)” value [9, 14] of the same compound?
**A.** 0.19

**Q.** And the MIC ([10]; ATCC13880, substance alone)?
**A.** > 100 µg/mL

**Q.** And the “Combination Result” value [10, 14]?
**A.** synergy (Synergy is defined as the FICI (Σ)≤0.5)

**Q.** And the “FICI (Average)” value [10, 14]?
**A.** 0.21

**Q.** What about the “Combination Result” value [11, 14] of the same compound?
**A.** synergy (Synergy is defined as the FICI (Σ)≤0.5)

**Q.** And the “FICI (Average)” value [11, 14]?
**A.** 0.31

**Q.** And the MIC ([11]; substance alone)?
**A.** 25 µg/mL

**Q.** What about the MIC ([12]; ATCC17978, substance alone) of the same compound?
**A.** 25 µg/mL

**Q.** And the “Combination Result” value [12, 14]?
**A.** synergy (Synergy is defined as the FICI (Σ)≤0.5)

**Q.** And the “FICI (Average)” value [12, 14]?
**A.** 0.27

**Q.** And the “Combination Result” value [13, 14]?
**A.** synergy (Synergy is defined as the FICI (Σ)≤0.5)

**Q.** What about the “FICI (Average)” value [13, 14] of the same compound?
**A.** 0.19

**Q.** And the MIC ([13]; substance alone)?
**A.** 100 µg/mL
